A word on the IC50: it is the concentration that gives 50% inhibition.

Our source for the IC50 values is US12479820B2, “Pyridin-3-yl derivatives” (Idorsia Pharmaceuticals Ltd, priority 2019, dated 2025).

This assay deals with T1, human LPA1 receptor (Homo sapiens, UniProt Q92633).
T1 construct: TEV protease site; Gal4-VP16 transcription factor; host or cells: Tango EDG2-bla U2OS cells
T1 sequence (Q92633 whole entry, the tested form may be a part): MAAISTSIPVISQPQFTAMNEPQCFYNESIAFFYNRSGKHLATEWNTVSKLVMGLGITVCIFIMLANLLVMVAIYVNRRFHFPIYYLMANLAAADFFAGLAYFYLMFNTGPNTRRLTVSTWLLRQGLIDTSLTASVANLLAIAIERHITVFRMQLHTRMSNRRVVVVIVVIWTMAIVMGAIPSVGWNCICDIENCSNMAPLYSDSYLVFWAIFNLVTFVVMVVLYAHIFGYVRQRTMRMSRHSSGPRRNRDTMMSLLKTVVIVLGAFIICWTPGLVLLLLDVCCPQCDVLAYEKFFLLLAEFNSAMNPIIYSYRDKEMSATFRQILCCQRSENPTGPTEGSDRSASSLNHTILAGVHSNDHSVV
As to the kind of experiment: Beta-arrestin recruitment assay to determine IC50 values for human LPAR1. Type of assay: cell-based. Conditions: Tango EDG2-bla U2OS cells, antagonist assay, LPA 18:1 500 nM final. The gist of the method: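 Tango EDG2-bla U2OS cells were preincubated 30 min at 37 °C with compound. They were then stimulated with 500 nM (final) LPA 18:1 for 16 h. β-Lactamase reporter read by LiveBLAzer FRET substrate (2 h) as the 460/530 nm ratio; IC50 from 4-parameter logistic fit.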
In general terms: Recruitment of arrestin is a read-out of receptor activation apart from second messengers.
Take `COc1cc(Cl)ncc1NC(=O)C1(c2ccccc2C(C)C)CN(C(=O)NCCC(=O)O)C1` [Example 22-14, 3-(3-((6-chloro-4-methoxypyridin-3-yl)carbamoyl)-3-(2-isopropylphenyl)azetidine-1-carboxamido)propanoic acid]: the IC50 came to 204 nM.

For the molecule `CCOC(=O)C(C)(C)CCCN1CC(C(=O)Nc2cnc(Cl)cc2OC)(c2ccccc2C(C)C)C1` [Example 18-24, ethyl 5-(3-((6-chloro-4-methoxypyridin-3-yl)carbamoyl)-3-(2-isopropylphenyl)azetidin-1-yl)-2,2-dimethylpentanoate], the IC50 was found to be 156 nM. To `COc1cc(Cl)ncc1NC(=O)C1(c2ncccc2C(C)C)CNC1` [Example 15, N-(6-chloro-4-methoxypyridin-3-yl)-3-(3-isopropylpyridin-2-yl)azetidine-3-carboxamide] belongs 196 nM; to `COC[C@H](C)Oc1cc(Cl)ncc1NC(=O)C1(c2ccccc2C(C)C)CN(C(=O)NC2CC2)C1` [Example 22-6, (S)-N3-(6-chloro-4-((1-methoxypropan-2-yl)oxy)pyridin-3-yl)-N1-cyclopropyl-3-(2-isopropylphenyl)azetidine-1,3-dicarboxamide], 3 nM. To `COc1cc(Cl)ncc1NC(=O)C1(c2ccccc2C(C)C)CN(C(=O)N(C)C)C1` [Example 22-15, N^3-(6-chloro-4-methoxypyridin-3-yl)-3-(2-isopropylphenyl)-N1,N1-dimethylazetidine-1,3-dicarboxamide] belongs 74 nM; to `COc1cc(Cl)ncc1NC(=O)C1(c2ccccc2C(C)C)CN(CC(=O)O)C1` [Example 18-6, 2-(3-((6-chloro-4-methoxypyridin-3-yl)carbamoyl)-3-(2-isopropylphenyl)azetidin-1-yl)acetic acid], 128 nM; to `COc1cc(Cl)ncc1NC(=O)C1(c2ccccc2C(C)C)CN(Cc2cn[nH]c2)C1` [Example 18-14, 1-((1H-pyrazol-4-yl)methyl)-N-(6-chloro-4-methoxypyridin-3-yl)-3-(2-isopropylphenyl)azetidine-3-carboxamide], 74 nM. To `COc1cc(Cl)ncc1NC(=O)C1(c2ccccc2C(C)C)CN(Cc2cc[nH]n2)C1` [Example 18-13, 1-((1H-pyrazol-3-yl)methyl)-N-(6-chloro-4-methoxypyridin-3-yl)-3-(2-isopropylphenyl)azetidine-3-carboxamide] belongs 129 nM; to `COc1cc(Cl)ncc1NC(=O)C1(c2ccccc2C(C)C)CN(S(=O)(=O)NC2CC2)C1` [Example 21-13, N-(6-chloro-4-methoxypyridin-3-yl)-1-(N-cyclopropylsulfamoyl)-3-(2-isopropylphenyl)azetidine-3-carboxamide], 22 nM. Take `COC(=O)C(C)(C)CCN1CCC(C(=O)Nc2cnc(Cl)cc2OC)(c2ccccc2C(C)C)CC1` [Example 18-21, methyl 4-(4-((6-chloro-4-methoxypyridin-3-yl)carbamoyl)-4-(2-isopropylphenyl)piperidin-1-yl)-2,2-dimethylbutanoate]: the IC50 is 19 nM. Consider `COc1cc(Cl)ncc1NC(=O)C1(c2ccccc2C(C)C)CN(c2nc(C(=O)O)co2)C1` [Example 24-26, 2-(3-((6-chloro-4-methoxypyridin-3-yl)carbamoyl)-3-(2-isopropylphenyl)azetidin-1-yl)oxazole-4-carboxylic acid], for which the 50% inhibitory concentration (IC50) came out at 91 nM. To `COc1cc(Cl)ncc1NC(=O)C1(c2ccccc2C(C)C)CCNCC1` [Example 10, N-(6-chloro-4-methoxypyridin-3-yl)-4-(2-isopropylphenyl)piperidine-4-carboxamide] belongs 12 nM; to `COc1cc(Cl)ncc1NC(=O)C1(c2ccccc2C(C)C)CN(CC2(F)CC2)C1` [Example 18-10, N-(6-chloro-4-methoxypyridin-3-yl)-1-((1-fluorocyclopropyl)methyl)-3-(2-isopropylphenyl)azetidine-3-carboxamide], 76 nM.

In the case of `COC[C@H](C)Oc1cc(Cl)ncc1NC(=O)C1(c2ccccc2C(C)C)CN(S(N)(=O)=O)C1` [Example 21-7, (S)-N-(6-chloro-4-((1-methoxypropan-2-yl)oxy)pyridin-3-yl)-3-(2-isopropylphenyl)-1-sulfamoylazetidine-3-carboxamide], the IC50 worked out at 3 nM.

As to `COc1cc(Cl)ncc1NC(=O)C1(c2ccccc2C(C)C)CCN(c2nc(C)ncc2F)CC1` [Example 24-18, N-(6-chloro-4-methoxypyridin-3-yl)-1-(5-fluoro-2-methylpyrimidin-4-yl)-4-(2-isopropylphenyl)piperidine-4-carboxamide], the IC50 came to 5 nM.

As to `CNC(=O)N1CC(C(=O)Nc2cnc(Cl)cc2OC)(c2ccccc2C(C)C)C1` [Example 22-2, N3-(6-chloro-4-methoxypyridin-3-yl)-3-(2-isopropylphenyl)-N1-methylazetidine-1,3-dicarboxamide], the half-maximal inhibitory concentration (IC50) came to 12 nM. To `COc1cc(C)ncc1NC(=O)C1(c2ccccc2C(C)C)CNC1` [Example 11, 3-(2-isopropylphenyl)-N-(4-methoxy-6-methylpyridin-3-yl)azetidine-3-carboxamide] belongs 36 nM; to `COc1cc(Cl)ncc1NC(=O)C1(c2ccccc2C(C)C)CN(S(=O)(=O)CCN(C)C)C1` [Example 20-4, N-(6-chloro-4-methoxypyridin-3-yl)-1-((2-(dimethylamino)ethyl)sulfonyl)-3-(2-isopropylphenyl)azetidine-3-carboxamide], 472 nM; to `COc1cc(C(F)(F)F)ncc1NC(=O)C1(c2ccccc2C(C)C)CN(S(N)(=O)=O)C1` [Example 21-11, 3-(2-isopropylphenyl)-N-(4-methoxy-6-(trifluoromethyl)pyridin-3-yl)-1-sulfamoylazetidine-3-carboxamide], 42 nM.

Consider `COc1cc(Cl)ncc1NC(=O)C1(c2ccccc2C(C)C)CN(C(=O)NC(C)C)C1` [Example 22-4, N3-(6-chloro-4-methoxypyridin-3-yl)-N1-isopropyl-3-(2-isopropylphenyl)azetidine-1,3-dicarboxamide], for which the IC50 came out at 9 nM. Consider `COc1cc(Cl)ncc1NC(=O)C1(c2ccccc2C(C)C)CN(c2ncc(F)cn2)C1` [Example 24-9, N-(6-chloro-4-methoxypyridin-3-yl)-1-(5-fluoropyrimidin-2-yl)-3-(2-isopropylphenyl)azetidine-3-carboxamide], for which the IC50 is 8 nM. Consider `COc1cc(Cl)ncc1NC(=O)C1(c2ccccc2C(C)C)CN(C(=O)CCO)C1` [Example 19-1, N-(6-chloro-4-methoxypyridin-3-yl)-1-(3-hydroxypropanoyl)-3-(2-isopropylphenyl)azetidine-3-carboxamide], for which the IC50 stood at 127 nM.

Take `COc1cc(Cl)ncc1NC(=O)C1(c2ccccc2C(C)C)CN(C(=O)CNS(C)(=O)=O)C1` [Example 19-15, N-(6-chloro-4-methoxypyridin-3-yl)-3-(2-isopropylphenyl)-1-((methylsulfonyl)glycyl)azetidine-3-carboxamide]: the half-maximal inhibitory concentration (IC50) worked out at 37 nM. To `COc1cc(Cl)ncc1NC(=O)C1(c2ccccc2C(C)C)CN(c2ccnc(C)n2)C1` [Example 24-12, N-(6-chloro-4-methoxypyridin-3-yl)-3-(2-isopropylphenyl)-1-(2-methylpyrimidin-4-yl)azetidine-3-carboxamide] belongs 7 nM.
